Patent publication US20240287093A1, “HIGH ACTIVITY STING PROTEIN AGONIST” (ADLAI NORTYE BIOPHARMA CO., LTD., priority 2018, published 2024)

What was measured:
Type in all cases: cell-based
[1] = molecular target: T1, STING variants (WT) (Homo sapiens, UniProt Q86WV6); test: SEAP reporter assay in HEK-Blue ISG KO-STING cells transfected with STING WT variant (Method 1); details: 24 h
T1 construct: host or cells: HEK-Blue ISG KO-STING cells (Invivogen, hkb-kostg)
From the text: (§1) Example I: STING Variants (WT & HAQ) Activation by Compounds in HEK-Blue™ ISG KO-STING Cells (Method 1)
(§2) Activation of STING can be determined using a SEAP reporter assay in HEK-Blue™ ISG KO-STING cells (Invivogen, cat #hkb-kostg) transfected with plasmids expressing STING variants (WT & HAQ) (referred to WO2017/175147A1). STING variants (WT & HAQ) vector were constructed based on STING-232H vector (Origene, RC208418). GFP vector (VT2069) was bought from Youbio. The detailed protocol as follows: HEK-Blue™ ISG KO-STING cells were harvest and seeding into 96 well plate, the final cell number was 0.8×10^5 cells/well. Transfections were prepared using Lipofectamine 2000 (Invitrogen, Cat #11668-027) following the manufacturer's instructions (Lipo2000:DNA=1:10), 20 ul of transfection suspension containing 1 ng STING vector was added to cell culture plate and incubated at 37° C., 5% CO2 for 24 h. After 24 hours incubation, compounds were added at proper concentration, and the final DMSO concentration was 0.5%. After 24 h incubation, the supernatant was collected to detect SEAP signal using Great EscAPe SEAP chemiluminescence KIT (Clontech, cat #631738) and cells were collected to detect cell viability using CellTiter-Glo Luminescent Cell Viability Assay (Promega, cat #G7573) following the manufacturer's instructions. The data were described by the ratio of the stimulating signal of compounds to 0.5% DMSO.

[2] = molecular target: T2, STING variants (HAQ) (Homo sapiens, UniProt Q86WV6, G230A/R293Q/R71H); test: SEAP reporter assay in HEK-Blue ISG KO-STING cells transfected with STING HAQ variant (Method 1); details: 24 h
T2 construct: host or cells: HEK-Blue ISG KO-STING cells (Invivogen, hkb-kostg)
T2 sequence (Q86WV6 whole entry R71H/G230A/R293Q): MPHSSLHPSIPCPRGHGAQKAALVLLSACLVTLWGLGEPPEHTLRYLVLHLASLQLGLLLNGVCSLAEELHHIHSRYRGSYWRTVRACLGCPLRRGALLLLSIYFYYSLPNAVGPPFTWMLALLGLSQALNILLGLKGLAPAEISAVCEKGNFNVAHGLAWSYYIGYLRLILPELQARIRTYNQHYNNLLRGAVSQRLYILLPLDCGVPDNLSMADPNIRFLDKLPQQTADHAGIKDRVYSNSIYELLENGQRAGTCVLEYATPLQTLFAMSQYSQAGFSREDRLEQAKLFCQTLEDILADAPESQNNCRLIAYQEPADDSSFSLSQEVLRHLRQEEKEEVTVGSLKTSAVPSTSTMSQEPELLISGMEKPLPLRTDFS
From the text: as §1, §2

[3] = molecular target: T3, STING (Homo sapiens, UniProt Q86WV6, G230A/H232R/R293Q/R71H); test: IFNβ release from THP1 by STING activation (hIFNβ ELISA); details: THP1 cells, 24 h, IFN-β in supernatant; inactive = IFNβ not detected at the maximum concentration of compounds
T3 construct: THP1 was purchased from National Collection of Authenticated Cell Cultures (Cat #TCHu 57); host or cells: THP1
T3 sequence (Q86WV6 whole entry R71H/G230A/H232R/R293Q): as the sequence (Q86WV6 whole entry R71H/G230A/R293Q) above, with H232R counted along it
Experimental: Example III: Compound Stimulate THP1 to Release IFNβ by STING Activation
In this assay, activation of STING by compounds was evaluated by detecting their ability to stimulate the secretion of IFN-β (interferon-beta) from THP1. THP1 was purchased from National Collection of Authenticated Cell Cultures (Cat #TCHu 57). The top dose of compounds was setted according to their solubility. First, Compounds were 3 times diluted with medium, 8-dose points in total. The final DMSO concentration was 0.2%. THP1 during the logarithmic phase was resuspended to 2×10^6 cells/ml in assay medium. The THP1-cell suspension was dispensed into a 96-well U bottom plate containing 50 ul of compound diluted in medium. After 24 h incubation at 37° C., 5% CO2, the supernatant was collected. The concentration of IFN-β in the supernatant was measured using a human IFNβ ELISA KIT (R&D, DY814-05). The data was fitted with GraphPad Prism or XLfit to calculate EC50 values.

[4] = compound concentration 31.25 μM, SEAP signal ratio to 0.5% DMSO
[5] = compound concentration 15.65 μM
[6] = compound concentration 169.6 μM

Compound	Fold change related to DMSO control, WT ([1]; compound concentration 25 μM) [fold]	Fold change related to DMSO control, HAQ ([2]; compound concentration 25 μM) [fold]	EC50 [3] [µM]	other results
CCn1nc(C)cc1C(=O)Nc1nc2cc(C(N)=O)cc3c2n1[C@@H](CCCNC(=O)OCc1ccccc1)CO3 [Example 1, Benzyl (S)-(3-(7-carbamoyl-2-(1-ethyl-3-methyl-1H-pyrazole-5-carboxamido)-3,4-dihydro-5-oxa-1,2a-diazaacenaphthylen-3-yl)propyl)carbamate]	–	–	–	Fold change related to DMSO control, WT [1, 4]: 3.08 fold; Fold change related to DMSO control, HAQ [2, 4]: 21.49 fold; hIFNβ ELISA (EC50, μM) [3]: inactive
CCn1nc(C)cc1C(=O)Nc1nc2cc(C(N)=O)cc3c2n1C(C)(CO)CO3 (stereo not drawn) [Example 3, 2-(1-Ethyl-3-methyl-1H-pyrazole-5-carboxamido)-3-(hydroxymethyl)-3-methyl-3,4-dihydro-5-oxa-1,2a-diazaacenaphthylene-7-carboxamide]	–	–	–	Fold change related to DMSO control, WT ([1]; compound concentration 125 μM): 1.79 fold; Fold change related to DMSO control, HAQ ([2]; compound concentration 125 μM): 3.54 fold
CCOC(=O)/C=C/C1(C)COc2cc(C(N)=O)cc3nc(NC(=O)c4cc(C)nn4CC)n1c23 (stereo not drawn) [Example 5, Ethyl (E)-3-(7-carbamoyl-2-(1-ethyl-3-methyl-1H-pyrazole-5-carboxamido)-3-methyl-3,4-dihydro-5-oxa-1,2a-diazaacenaphthylen-3-yl)acrylate]	–	–	–	Fold change related to DMSO control, WT [1, 5]: 1.52 fold; Fold change related to DMSO control, HAQ [2, 5]: 1.20 fold
CCn1nc(C)cc1C(=O)Nc1nc2cc(C(N)=O)cc3c2n1[C@@H](CCNC(=O)OC(C)(C)C)CO3 [Example 6, tert-Butyl (S)-(2-(7-carbamoyl-2-(1-ethyl-3-methyl-1H-pyrazole-5-carboxamido)-3,4-dihydro-5-oxa-1,2a-diazaacenaphthylen-3-yl)ethyl)carbamate]	–	–	–	Fold change related to DMSO control, WT [1, 6]: 0.76 fold; Fold change related to DMSO control, HAQ [2, 6]: 4.41 fold
CCn1nc(C)cc1C(=O)Nc1nc2cc(C(N)=O)cc3c2n1[C@@H](CCNC(=O)OCc1ccccc1)CO3 [Example 14, Benzyl (S)-(2-(7-carbamoyl-2-(1-ethyl-3-methyl-1H-pyrazole-5-carboxamido)-3,4-dihydro-5-oxa-1,2a-diazaacenaphthylen-3-yl)ethyl)carbamate]	1.59	27.44	–	–
CCn1nc(C)cc1C(=O)Nc1nc2cc(C(N)=O)cc3c2n1[C@@H](CCCCNC(=O)OCc1ccccc1)CO3 [Example 17, Benzyl (S)-(4-(7-carbamoyl-2-(1-ethyl-3-methyl-1H-pyrazole-5-carboxamido)-3,4-dihydro-5-oxa-1,2a-diazaacenaphthylen-3-yl)butyl)carbamate]	1.76	37.64	–	–
CCn1nc(C)cc1C(=O)Nc1nc2cc(C(N)=O)cc3c2n1C(C)(C)CO3 [Example 21, 2-(1-Ethyl-3-methyl-1H-pyrazole-5-carboxamido)-3,3-dimethyl-3,4-dihydro-5-oxa-1,2a-diazaacenaphthylene-7-carboxamide]	2.18	8.87	–	–
CCn1nc(C)cc1C(=O)Nc1nc2cc(C(N)=O)cc3c2n1C(C)(CN(C)CCc1ccccc1)CO3 (stereo not drawn) [Example 29, 2-(1-Ethyl-3-methyl-1H-pyrazole-5-carboxamido)-3-methyl-3-((methyl(phenethyl)amino)methyl)-3,4-dihydro-5-oxa-1,2a-diazaacenaphthylene-7-carboxamide]	1.06	1.14	–	–
CCn1nc(C)cc1C(=O)Nc1nc2cc(C(N)=O)cc3c2n1[C@@H](COCc1ccccc1)CO3 [Example 30, (S)-3-((Benzyloxy)methyl)-2-(1-ethyl-3-methyl-1H-pyrazole-5-carboxamido)-3,4-dihydro-5-oxa-1,2a-diazaacenaphthylene-7-carboxamide]	1.63	35.09	–	–
CCn1nc(C)cc1C(=O)Nc1nc2cc(C(N)=O)cc3c2n1[C@@H](CCNC(=O)/C=C/c1ccc(C#N)cc1)CO3 [Example 37, (S,E)-3-(2-(3-(4-cyanophenyl)acrylamido)ethyl)-2-(1-ethyl-3-methyl-1H-pyrazole-5-carboxamido)-3,4-dihydro-5-oxa-1,2a-diazaacenaphthylene-7-carboxamide]	–	–	–	Fold change related to DMSO control, WT ([1]; compound concentration 3.11 μM): 1.07 fold; Fold change related to DMSO control, HAQ ([2]; compound concentration 3.11 μM): 1.85 fold
CCn1nc(C)cc1C(=O)Nc1nc2cc(C(N)=O)cc3c2n1[C@@H](CCNC(=O)/C=C/c1cccc(F)c1)CO3 [Example 38, (S,E)-2-(1-ethyl-3-methyl-1H-pyrazole-5-carboxamido)-3-(2-(3-(3-fluorophenyl)acrylamido)ethyl)-3,4-dihydro-5-oxa-1,2a-diazaacenaphthylene-7-carboxamide]	2.96	22.76	–	–
CCn1nc(C)cc1C(=O)Nc1nc2cc(C(N)=O)cc3c2n1[C@@H](CCNC(=O)OCCc1ccccc1)CO3 [Example 42, Phenethyl (S)-(2-(7-carbamoyl-2-(1-ethyl-3-methyl-1H-pyrazole-5-carboxamido)-3,4-dihydro-5-oxa-1,2a-diazaacenaphthylen-3-yl)ethyl)carbamate]	–	–	–	Fold change related to DMSO control, WT ([1]; compound concentration 21.4 μM): 1.10 fold; Fold change related to DMSO control, HAQ ([2]; compound concentration 21.4 μM): 10.52 fold

Further lines, with some results ahead:

Fold change related to DMSO control, WT ([1]; compound concentration 25 μM) [fold]	Fold change related to DMSO control, HAQ ([2]; compound concentration 25 μM) [fold]	EC50 [3] [µM]	Compound	other results
2.78	25.85	–	CCn1nc(C)cc1C(=O)Nc1nc2cc(C(N)=O)cc3c2n1[C@@H](CCNC(=O)/C=C/c1ccccc1OC)CO3 [Example 39, (S,E)-2-(1-ethyl-3-methyl-1H-pyrazole-5-carboxamido)-3-(2-(3-(2-methoxyphenyl)acrylamido)ethyl)-3,4-dihydro-5-oxa-1,2a-diazaacenaphthylene-7-carboxamide]	–
–	–	6.8	CCn1nc(C)cc1C(=O)Nc1nc2cc(C(N)=O)cc3c2n1CC(C)(C)CN3CCOC [Example 73, 1-(1-ethyl-3-methyl-1H-pyrazole-5-carboxamido)-6-(2-methoxyethyl)-8,8-dimethyl-6,7,8,9-tetrahydro-2,6,9a-triazabenzo[cd]azulene-4-carboxamide]	–
–	–	11.8	CCn1nc(C)cc1C(=O)Nc1nc2cc(C(N)=O)cc3c2n1CC(C)(C)CN3CCCOC [Example 74, 1-(1-Ethyl-3-methyl-1H-pyrazole-5-carboxamido)-6-(3-methoxypropyl)-8,8-dimethyl-6,7,8,9-tetrahydro-2,6,9a-triazabenzo[cd]azulene-4-carboxamide]	–
–	–	7.7	CCn1nc(C)cc1C(=O)Nc1nc2cc(C(N)=O)cc3c2n1CC(C)(C)CN3CCOCc1ccccc1 [Example 75, 6-(2-(benzyloxy)ethyl)-1-(1-ethyl-3-methyl-1H-pyrazole-5-carboxamido)-8,8-dimethyl-6,7,8,9-tetrahydro-2,6,9a-triazabenzo[cd]azulene-4-carboxamide]	–
–	–	9.9	CCn1nc(C)cc1C(=O)Nc1nc2cc(C(N)=O)cc3c2n1CC(C)(C)CN3CCO [Example 76, 1-(1-ethyl-3-methyl-1H-pyrazole-5-carboxamido)-6-(2-hydroxyethyl)-8,8-dimethyl-6,7,8,9-tetrahydro-2,6,9a-triazabenzo[cd]azulene-4-carboxamide]	–
–	–	20.8	CCn1nc(C)cc1C(=O)Nc1nc2cc(C(N)=O)cc3c2n1CC1(CCC1)CO3 [Example 77, 1-(1-ethyl-3-methyl-1H-pyrazole-5-carboxamido)-7H,9H-6-oxa-2,9a-diazaspiro[benzo[cd]azulene-8,1′-cyclobutan]-1,2a,2a1(5a),4-tetraene-4-carboxamide]	–
–	–	19	CCn1nc(C)c(F)c1C(=O)Nc1nc2cc(C(N)=O)cc3c2n1CC1(CCC1)CO3 [Example 78, 1-(1-Ethyl-4-fluoro-3-methyl-1H-pyrazole-5-carboxamido)-7H,9H-6-oxa-2,9a-diazaspiro[benzo[cd]azulene-8,1′-cyclobutan]-1,2a,2a1(5a),4-tetraene-4-carboxamide]	–
